Results from patent US20140322344A1, “VACCINE PREPARATION FOR CANCER TREATMENT” (priority 2011, published 2014).

Legend:
[1] = test system: mouse colon cancer cells CT 26 into which the MAGE-A4 gene was stably introduced; assay: Tumor rejection test, CT26/MAGE-A4; format: in vivo, BALB/c mice; details: co-administered s.c. with CpG oligo DNA 7 days before tumor implantation; p<0.0001; FIG. 7
Description: A mouse colon cancer cell CT26 cell line into which the MAGE-A4 gene was stably introduced or a mouse fibrosarcoma CMS5a cell line which expresses mERK2 was subcutaneously implanted in the following manner. The CT26 cell line or CMS5a cell line, which had been cultured in a T75 flask (Nunc Co., Ltd.), was washed with PBS; then the cells were removed with PBS containing 0.5% trypsin and collected in RPMI1640 medium containing 10% FBS. After centrifugation (400×g, 5 min., 4° C.), the supernatant was removed, washed twice with RPMI1640 medium, then re-suspended in RPMI1640 medium at a concentration of 1×10^6 cells/100 μL, and subcutaneously implanted into BALB/c mice in an amount of 100 μL/individual. Subsequently, their tumor areas were measured over time. A comparison of the data in the tumor rejection test was performed according to Student's t-test using MS Excel (Microsoft).

[2] = test system: CD8-positive killer T cells and CD4-positive helper T cells specific to MAGE-A4 epitopes; assay: Induction of antigen-specific T cells in immunized mice, spleen cells, intracellular cytokine staining (MAGE-A4 peptides); format: in vivo, BALB/c mice; details: s.c. twice at one week intervals, FIG. 1
Description: […] For administration, they were subcutaneously injected into the backs of the mice twice at one week intervals. For one dose of the hydrophobized polysaccharide-synthetic long peptide complex, a dosage corresponding to 0.1 mg of the synthetic long peptide complex was administered. Either the CpG oligo DNA or the poly-IC RNA as the immunopotentiating agent was subcutaneously injected at a dose of 0.05 mg proximal to the administration site of the hydrophobized polysaccharide-synthetic long peptide.
One week after the final administration, spleen cells were isolated from the treated mice in the following manner. The spleen was isolated from the mouse and washed in RPMI1640 medium to remove blood. The spleen was ground using a slide glass, and then the free cells were collected in RPMI1640 medium. After centrifugation (400×g, 5 min., 4° C.), the supernatant was removed, to which 2 mL of ACK solution was added to treat the cells for 1 minute. 18 mL of RPMI1640 medium was added and centrifugation (400×g, 5 min., 4° C.) was carried out. […] After the number of the cells was counted, the cells were suspended in RPMI1640 medium containing 10% fetal bovine serum (FBS) so that the cell concentration was 1×10^7 cells/mL. […]
The cells were analyzed with a flow cytometer (FACS Canto II, BD Biosciences Company) using the associated analysis software (FACSDiva).

MAGE-A4 p264:40: synthetic long peptide, 40 aa, from MAGE-A4, SEQ ID NO: 1: GSNPARYEFLWGPRALAETSYVKVLEHVVRVNARVRIAYP (Human; MAGE-A4 p26440)
tumor growth inhibition as compared to PBS administration group [1]: significant inhibition
induction of killer T cells and helper T cells specific to the peptide ([2]; administered alone, no immunopotentiating agent): are not induced
induction of antigen-specific killer T cells and helper T cells ([2]; co-administered with CpG oligo DNA): the intended T cells are not induced
